For data set [1], the target named is ERα receptor in MCF-7 human ductal carcinoma breast cell line (Homo sapiens (Human), UniProt P03372). The experiment in a line: MCF-7 ER down regulation assay (immuno-fluorescence). As to conditions: MCF-7 cells; for DC50: 18-22 hours incubation, read-out: ER down regulation IC50 value; for % downregulation (in brackets) in ER down regulation assay: >90% unless otherwise stated. It is filed as cell-based. The procedure: MCF-7 ER Down Regulation Assay
The ability of compounds to down-regulate Estrogen Receptor (ER) numbers was assessed in a cell based immuno-fluorescence assay using the MCF-7 human ductal carcinoma breast cell line. MCF-7 cells were revived directly from a cryovial (approx 5×10^6 cells) in Assay Medium (phenol red free Dulbecco's Modified Eagle's medium (DMEM) (Sigma D5921) containing 2mM L-Glutamine and 5% (v/v) Charcoal/Dextran treated foetal calf serum. Cells were syringed once using a sterile 18 G×1.5 inch (1.2×40 mm) broad gauge needle and cell density was measured using a Coulter Counter (Beckman). Cells were further diluted in Assay Medium to a density of 3.75×10^4 cells per mL and 40 μL per well added to transparent bottomed, black, tissue culture treated 384 well plates (Costar, No. 3712) using a Thermo Scientific Matrix WellMate or Thermo Multidrop. Following cell seeding, plates were incubated overnight at 37° C., 5% CO2 (Liconic carousel incubator). Test data was generated using the LabCyte Echo™ model 555 compound reformatter which is part of an automated workcell (Integrated Echo 2 workcell). 10 mM compound stock solutions of the test compounds were used to generate a 384 well compound dosing plate (Labcyte P-05525-CV1). […] 40 μΛ of DMSO added to wells in row P on the source plate allow for DMSO normalisation across the dose range. To dose the control wells 40 μL of DMSO was added to row O1 and 40 μL of 100 μM fulvestrant in DMSO was added to row O3 on the compound source plate. […] Compounds were dispensed onto the cell plates with a compound source plate prepared as above producing a 12 pt duplicate 3 μM to 3 pM dose range with 3 fold dilutions and one final 10 fold dilution using the Integrated Echo 2 workcell. […] Cells were fixed at room temperature for 20 mins before being washed two times with 250 μL PBS/Proclin (PBS with a Biocide preservative) using a BioTek platewasher, 40 μL of PBS/Proclin was then added to all wells and the plates stored at 4° C. The fixing method described above was carried out on the Integrated Echo 2 workcell. Immunostaining was performed using an automated AutoElisa workcell. The PBS/Proclin was aspirated from all wells and the cells permeabilised with 40 μL PBS containing 0.5% Tween™ 20 (v/v) for 1 hour at room temperature. The plates were washed three times in 250 μL of PBS/0.05% (v/v) Tween 20 with Proclin (PBST with a Biocide preservative) and then 20 μL of ERα (SP1) Rabbit monoclonal antibody (Thermofisher) 1:1000 in PBS/Tween™/3% (w/v) Bovine Serum Albumin was added. The plates were incubated overnight at 4° C. (Liconic carousel incubator) and then washed three times in 250 μL of PBS/0.05% (v/v) Tween™ 20 with Proclin (PBST). The plates were then incubated with 20 μL/well of a goat anti-rabbit IgG AlexaFluor 594 or goat anti-rabbit AlexaFluor 488 antibody (Molecular Probes) with Hoechst at 1:5000 in PBS/Tween™/3% (w/v) Bovine Serum Albumin for lhour at room temperature. The plates were then washed three times in 250 μL of PBS/0.05% (v/v) Tween™ 20 with Proclin (PBST with a Biocide preservative). 20 μL of PBS was added to each well and the plates covered with a black plate seal and stored at 4° C. before being read. Plates were read using a Cellomics Arrayscan reading the 594 nm (24 hr time point) or 488 nm (5 hr timepoint) fluorescence to measure the ERα receptor level in each well. The mean total intensity was normalized for cell number giving the total intensity per cell.

Data set [2] in a line: Human hepatocyte assay (metabolic stability). The conditions noted are these: human hepatocytes, 37° C., 1.0×10^6 viable cells/mL; read-out: Clint (in vitro intrinsic clearance). It is filed as in vitro ADME. The method, then:
The metabolic stability of compounds in human hepatocytes was assessed using the following protocol: • 1. Prepare 10 mM stock solutions of compound and control compounds in appropriate solvent (DMSO). Place incubation medium (L-15Medium) in a 37° C. water bath, and allow warming for at least 15 minutes prior to use. • 2. Add 80 μL of acetonitrile to each well of the 96-well deep well plate (quenching plate). • 3. In a new 96-well plate, dilute the 10 mM test compounds and the control compounds to 100 μM by combining 198 μL of acetonitrile and 2 μL of 10 mM stock. • 4. Remove a vial of cryopreserved (less than −150° C.) human hepatocytes (LiverPool™ 10 Donor Human hepatocytes obtained from Celsis IVT. Chicago, Ill. (Product No. S01205)) from storage, ensuring that vials remain at cryogenic temperatures until thawing process ensues. As quickly as possible, thaw the cells by placing the vial in a 37° C. water bath and gently shaking the vials. Vials should remain in water bath until all ice crystals have dissolved and are no longer visible. After thawing is completed, spray vial with 70% ethanol, transfer the vial to a bio-safety cabinet. • 5. Open the vial and pour the contents into the 50 mL conical tube containing thawing medium. Place the 50 mL conical tube into a centrifuge and spin at 100 g for 10 minutes. […] Using Cellometer® Vision, count cells and determine the viable cell density. Cells with poor viability (<80% viability) are not acceptable for use. Dilute cells with incubation medium to a working cell density of 1.0×10^6 viable cells/mL. • 7. Transfer 247.5 μL of hepatocytes into each well of a 96-well cell culture plate. Place the plate on Eppendorf Thermomixer Comfort plate shaker to allow the hepatocytes to warm for 10 minutes. • 8. Add 2.5 μL of 100 μM test compound or control compounds into an incubation well containing cells, mix to achieve a homogenous suspension at 0.5 min, which when achieved, will define the 0.5 min time point. At the 0.5 min time, transfer 20 μL incubated mixture to wells in a “Quenching plate” followed by vortexing. • 9. Incubate the plate at 37° C. at 900 rpm on an Eppendorf Thermomixer Comfort plate shaker. At 5, 15, 30, 45, 60, 80, 100 and 120 min, mix the incubation system and transfer samples of 20 μL incubated mixture at each time point to wells in a separate “Quenching plate” followed by vortexing. • 10. Centrifuge the quenching plates for 20 minutes at 4,000 rpm. 4 different compounds are pooled into one cassette and used for LC/MS/MS analysis.
All calculations are carried out using Microsoft Excel. Peak areas are determined from extracted ion chromatograms. In vitro intrinsic clearance (in vitro Clint, in μL/min/10^6 cells) of parent compound is determined by regression analysis of the Ln percent parent disappearance vs. time curve. The in vitro intrinsic clearance (in vitro Clint, in μL/min/10^6 cells) is determined from the slope value using the following equation and is shown in Table C:
V=incubation volume (0.25 mL);
N=number of hepatocytes per well (0.25×10 ^6 cells).

Each structure is given as a SMILES string.

Chain of ERα receptor in MCF-7 human ductal carcinoma breast cell line (P03372 whole entry): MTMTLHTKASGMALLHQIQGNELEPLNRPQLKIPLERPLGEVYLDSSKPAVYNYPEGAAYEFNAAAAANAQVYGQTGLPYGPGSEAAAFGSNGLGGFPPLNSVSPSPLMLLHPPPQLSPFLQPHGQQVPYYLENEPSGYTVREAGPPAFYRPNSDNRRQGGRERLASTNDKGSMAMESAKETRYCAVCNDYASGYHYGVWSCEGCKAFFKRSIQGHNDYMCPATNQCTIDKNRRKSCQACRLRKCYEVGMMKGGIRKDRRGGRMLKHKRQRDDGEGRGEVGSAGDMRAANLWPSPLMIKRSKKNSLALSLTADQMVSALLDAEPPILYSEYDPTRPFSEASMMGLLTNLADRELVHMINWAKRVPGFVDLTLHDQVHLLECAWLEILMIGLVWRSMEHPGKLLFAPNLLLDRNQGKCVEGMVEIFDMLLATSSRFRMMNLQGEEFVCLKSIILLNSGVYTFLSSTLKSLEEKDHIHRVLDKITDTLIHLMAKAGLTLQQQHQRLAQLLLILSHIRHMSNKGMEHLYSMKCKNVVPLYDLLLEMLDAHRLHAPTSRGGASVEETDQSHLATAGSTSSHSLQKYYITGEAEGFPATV

`CC(C)CN1[C@H](c2c(F)cc(OCCN3CC(CF)C3)cc2F)c2ccc3[nH]ncc3c2C[C@H]1C` [Example 33, (6S,8R)-6-(2,6-difluoro-4-(2-(3-(fluoromethyl)azetidin-1-yl)ethoxy)phenyl)-7-isobutyl-8-methyl-6,7,8,9-tetrahydro-3H-pyrazolo[4,3-f]isoquinoline]: the DC50 in data set [1] stood at 0.21 nM. Also, the hepatocyte CLint at 1 µM in data set [2] came to 9 µL/min/1e6 cells. Consider `CC(C)CN1[C@H](c2ccc(OCCN3CC(CF)C3)cn2)c2ccc3[nH]ncc3c2C[C@H]1C` [Example 40, (6S,8R)-6-(5-(2-(3-(fluoromethyl)azetidin-1-yl)ethoxy)pyridin-2-yl)-7-isobutyl-8-methyl-6,7,8,9-tetrahydro-3H-pyrazolo[4,3-f]isoquinoline], for which the DC50 in data set [1] is 0.36 nM. For the same molecule, the hepatocyte CLint at 1 µM in data set [2] worked out at 8 µL/min/1e6 cells.

For the molecule `CC(C)CN1[C@H](c2ccc(OCCN3CC(CF)C3)cc2)c2ccc3[nH]ncc3c2C[C@H]1C` [Example 28, (6R,8R)-6-(4-(2-(3-(fluoromethyl)azetidin-1-yl)ethoxy)phenyl)-7-isobutyl-8-methyl-6,7,8,9-tetrahydro-3H-pyrazolo[4,3-f]isoquinoline], the DC50 in data set [1] amounted to 0.14 nM. In data set [2], the hepatocyte CLint at 1 µM was 8 µL/min/1e6 cells. In the case of `C[C@@H]1Cc2c(ccc3[nH]ncc23)[C@@](C)(c2ccc(OCCN3CC(CF)C3)cc2)N1CC1(F)CC1` [Example 30, (6R,8R)-7-((1-fluorocyclopropyl)methyl)-6-(4-(2-(3-(fluoromethyl)azetidin-1-yl)ethoxy)phenyl)-6,8-dimethyl-6,7,8,9-tetrahydro-3H-pyrazolo[4,3-f]isoquinoline], the DC50 in data set [1] is 0.087 nM. For the same molecule, the hepatocyte CLint at 1 µM in data set [2] came to 13 µL/min/1e6 cells. For the molecule `CC(C)(F)CN1[C@H](c2c(F)cc(OCCN3CC(CF)C3)cc2F)c2ccc3[nH]ncc3c2C[C@H]1C(F)F` [Example 3, (6S,8S)-6-(2,6-difluoro-4-(2-(3-(fluoromethyl)azetidin-1-yl)ethoxy)phenyl)-8-(difluoromethyl)-7-(2-fluoro-2-methylpropyl)-6,7,8,9-tetrahydro-3H-pyrazolo[4,3-f]isoquinoline], in data set [1], the DC50 was determined as 0.16 nM. Besides, the hepatocyte CLint at 1 µM in data set [2] is 16 µL/min/1e6 cells. Turning to `C[C@@H]1Cc2c(ccc3[nH]ncc23)[C@@H](c2c(F)cc(OCCN3CC(C(F)F)C3)cc2F)N1CC(C)(C)F` [Example 38, (6S,8R)-6-(4-(2-(3-(difluoromethyl)azetidin-1-yl)ethoxy)-2,6-difluorophenyl)-7-(2-fluoro-2-methylpropyl)-8-methyl-6,7,8,9-tetrahydro-3H-pyrazolo[4,3-f]isoquinoline], the DC50 in data set [1] came out at 0.26 nM. Besides, the hepatocyte CLint at 1 µM in data set [2] stood at 15 µL/min/1e6 cells. With `CC(C)(F)CN1[C@H](C(F)F)Cc2c(ccc3[nH]ncc23)[C@@]1(C)c1c(F)cc(OCCN2CC(CF)C2)cc1F` [Example 4, (6S,8S)-6-(2,6-difluoro-4-(2-(3-(fluoromethyl)azetidin-1-yl)ethoxy)phenyl)-8-(difluoromethyl)-7-(2-fluoro-2-methylpropyl)-6-methyl-6,7,8,9-tetrahydro-3H-pyrazolo[4,3-f]isoquinoline], in data set [1], the DC50 amounted to 0.16 nM and the “% downregulation (in brackets) in ER down regulation assay” value turned out to be 80%. Besides, the hepatocyte CLint at 1 µM in data set [2] turned out to be 10 µL/min/1e6 cells. Regarding `C[C@@H]1Cc2c(ccc3[nH]ncc23)[C@@H](c2ccc(OCCN3CC(CF)C3)cn2)N1CC(C)(F)F` [Example 41, (6S,8R)-7-(2,2-difluoropropyl)-6-(5-(2-(3-(fluoromethyl)azetidin-1-yl)ethoxy)pyridin-2-yl)-8-methyl-6,7,8,9-tetrahydro-3H-pyrazolo[4,3-f]isoquinoline], the DC50 in data set [1] amounted to 0.29 nM.

Take `C[C@@H]1Cc2c(ccc3[nH]ncc23)[C@@H](c2c(F)cc(OCCN3CC(CF)C3)cc2F)N1CC(F)CF` (single isomer, unassigned) [Example 34]: the DC50 in data set [1] is 0.28 nM. On the same count and under the same terms, the result for `COCC(F)(F)CN1[C@H](c2ccc(OCCN3CC(CF)C3)cc2OC)c2ccc3[nH]ncc3c2C[C@H]1C` [Example 15, (6S,8R)-7-(2,2-difluoro-3-methoxypropyl)-6-(4-(2-(3-(fluoromethyl)azetidin-1-yl)ethoxy)-2-methoxyphenyl)-8-methyl-6,7,8,9-tetrahydro-3H-pyrazolo[4,3-f]isoquinoline] reads 0.091 nM. As for `COCC(C)(F)CN1[C@H](c2ccc(OCCN3CC(CF)C3)cc2OC)c2ccc3[nH]ncc3c2C[C@H]1C` (single isomer, unassigned) [Example 16], in data set [1], the DC50 amounted to 0.44 nM and the “% downregulation (in brackets) in ER down regulation assay” value came to 56%.

On to `COCC(C)(F)CN1[C@H](c2ccc(OCCN3CC(CF)C3)cc2OC)c2ccc3[nH]ncc3c2C[C@H]1C` (single isomer, unassigned) [Example 17], for which the DC50 in data set [1] was found to be 0.24 nM. Still for that read-out and setting: the figure for `COc1cc(OCCN2CC(CF)C2)cc(F)c1[C@@H]1c2ccc3[nH]ncc3c2C[C@@H](C)N1CC(C)(F)F` [Example 25, (6S,8R)-7-(2,2-difluoropropyl)-6-(2-fluoro-4-(2-(3-(fluoromethyl)azetidin-1-yl)ethoxy)-6-methoxyphenyl)-8-methyl-6,7,8,9-tetrahydro-3H-pyrazolo[4,3-f]isoquinoline] is 0.11 nM; for `C[C@@H]1Cc2c(ccc3[nH]ncc23)[C@@H](c2ncc(OCCN3CC(CF)C3)cc2F)N1CC(F)F` [Example 48, (6S,8R)-7-(2,2-difluoroethyl)-6-(3-fluoro-5-(2-(3-(fluoromethyl)azetidin-1-yl)ethoxy)pyridin-2-yl)-8-methyl-6,7,8,9-tetrahydro-3H-pyrazolo[4,3-f]isoquinoline] it is 1.9 nM.

The record behind these values is patent US10125135B2, “Chemical compounds” (AstraZeneca AB, priority 2016, dated 2018).
